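Protocol summary: plate cells (96-well), add compound at 5 concentrations, incubate 48 h, interpolate endpoints linearly. TGI marks complete inhibition of growth.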 Where only a bound is given, the exact number is not on record here.

Some test systems named below: MCF7 breast; A549 NSCLC; MDA-MB-435; SW-620 colon; OVCAR-8 ovarian; COLO 205 colon; NCI-H522 lung; TK-10 renal; HT29 colon; HOP-62 NSCLC; MOLT-4 leukemia; PC-3 prostate; NCI-H460 lung; HOP-92 NSCLC; A498 renal; SF-268 CNS; HL-60(TB) leukemia.
What all share (assay): DTP human tumour cell line panel, 48 h

What is called TGI is the concentration at which net growth stops. Read a high TGI as less potent growth arrest. As for `COC(=O)CNC(=O)CSc1nnc(COc2ccc(Cl)cc2)n1-c1ccccc1`, the concentration for total growth inhibition (TGI) with MCF7 breast is above 100 µM; with A549 NSCLC, above 100 µM; in the test with MDA-MB-435, 48.4 µM; with SW-620 colon it was above 100 µM; in the test with OVCAR-8 ovarian it was 92.9 µM; in the test with COLO 205 colon it was above 100 µM. In addition, the total growth inhibition concentration (TGI) in the test with NCI-H522 lung is 34.7 µM; in the test with TK-10 renal it was 46.3 µM; with HT29 colon, above 100 µM; with HOP-62 NSCLC, above 100 µM; with MOLT-4 leukemia, above 100 µM; with PC-3 prostate, 51.2 µM. Also, the TGI is above 100 µM in the test on NCI-H460 lung; above 100 µM in the test on HOP-92 NSCLC; above 100 µM in the test with A498 renal; 46.6 µM in the test with SF-268 CNS; above 100 µM in the test on HL-60(TB) leukemia.

For the molecule `CCOC(=O)c1csc(-c2cn(C)c3c2C(=O)C(OC)=CC3=O)n1`, the TGI with MCF7 breast was 69.8 µM; in the test with A549 NSCLC it was 97.1 µM; with MDA-MB-435 it was 11.1 µM; in the test with SW-620 colon it was above 100 µM; in the test on OVCAR-8 ovarian, above 100 µM; in the test with COLO 205 colon it was above 89.6 µM. Further, the concentration for total growth inhibition (TGI) is above 100 µM with NCI-H522 lung; above 100 µM in the test with TK-10 renal; above 100 µM with HT29 colon; 74 µM in the test with HOP-62 NSCLC; above 100 µM in the test on MOLT-4 leukemia; above 100 µM with PC-3 prostate. For the same molecule, the TGI is above 41.6 µM in the test with NCI-H460 lung; above 100 µM in the test with HOP-92 NSCLC; 73.1 µM with A498 renal; above 100 µM in the test with SF-268 CNS; above 100 µM in the test on HL-60(TB) leukemia.

In the case of `CC1(C)CCC[C@@]2(C)C1CC[C@@]1(CO1)[C@@H]2/C=C\C(C=O)CC=O` (stereo partly specified), the TGI with MCF7 breast, in the test with A549 NSCLC, with MDA-MB-435, with SW-620 colon, in the test on OVCAR-8 ovarian and in the test with COLO 205 colon was above 100 µM throughout. For the same molecule, the TGI in the test on NCI-H522 lung is above 100 µM; in the test on TK-10 renal, above 100 µM; in the test on HT29 colon it was above 100 µM; with HOP-62 NSCLC, above 100 µM; in the test with MOLT-4 leukemia, 62.2 µM; with PC-3 prostate, above 100 µM. Besides, the TGI was above 100 µM in the test with NCI-H460 lung; above 100 µM with HOP-92 NSCLC; above 100 µM in the test on A498 renal; above 100 µM in the test on SF-268 CNS; above 74.4 µM with HL-60(TB) leukemia.

Regarding `COC(=O)/C(C#N)=C/c1cc(C(C)(C)C)c(O)c(C(C)(C)C)c1`, the TGI in the test on MCF7 breast is 15.7 µM; in the test with A549 NSCLC, above 100 µM; in the test on MDA-MB-435 it was 18.4 µM; in the test with SW-620 colon, 14.5 µM; in the test with OVCAR-8 ovarian it was 33.6 µM; in the test with COLO 205 colon, 2.78 µM. In addition, the TGI is 5.52 µM with NCI-H522 lung; 12.9 µM in the test with TK-10 renal; 12.1 µM in the test on HT29 colon; 11.3 µM in the test on HOP-62 NSCLC; above 29.6 µM in the test with MOLT-4 leukemia; 6.78 µM with PC-3 prostate. Also, the total growth inhibition concentration (TGI) in the test with NCI-H460 lung was 5.75 µM; with HOP-92 NSCLC, 12.4 µM; in the test on A498 renal it was 8.37 µM; in the test with SF-268 CNS, above 40.5 µM; in the test with HL-60(TB) leukemia, 4.47 µM.

Consider `O=C(O)CCC(NC(=O)c1ccc(Oc2nc3ccccc3nc2-c2ccccc2)cc1)C(=O)O` (stereo unspecified), for which the TGI in the test on MCF7 breast, in the test with A549 NSCLC, in the test on MDA-MB-435, with SW-620 colon, in the test on OVCAR-8 ovarian and in the test with COLO 205 colon was above 100 µM throughout. The TGI in the test with NCI-H522 lung, with TK-10 renal, with HT29 colon, in the test on HOP-62 NSCLC, in the test on MOLT-4 leukemia and with PC-3 prostate was above 100 µM throughout. Further, the TGI in the test on NCI-H460 lung, in the test with HOP-92 NSCLC, in the test with A498 renal, with SF-268 CNS and with HL-60(TB) leukemia was above 100 µM throughout.

With `O=c1c2ccccc2nc(N/N=C/c2ccc(Cl)cc2)n1-c1ccccc1`, the TGI in the test with MCF7 breast, with A549 NSCLC, with MDA-MB-435, in the test with SW-620 colon, in the test with OVCAR-8 ovarian and with COLO 205 colon was above 100 µM in each case. In addition, the TGI in the test with NCI-H522 lung, in the test on TK-10 renal, in the test on HT29 colon, in the test with HOP-62 NSCLC, in the test with MOLT-4 leukemia and in the test on PC-3 prostate was above 100 µM throughout. The concentration for total growth inhibition (TGI) in the test on NCI-H460 lung, in the test with HOP-92 NSCLC, with A498 renal, with SF-268 CNS and with HL-60(TB) leukemia was above 100 µM each time.

As for `N#CC(C#N)=Cn1c(=S)[nH]c2ccc([N+](=O)[O-])cc21`, the TGI in the test on MCF7 breast, with A549 NSCLC, with MDA-MB-435, in the test with SW-620 colon, in the test on OVCAR-8 ovarian and in the test with COLO 205 colon was above 100 µM each time. Also, the TGI in the test with NCI-H522 lung, in the test on TK-10 renal, in the test with HT29 colon, with HOP-62 NSCLC, with MOLT-4 leukemia and with PC-3 prostate was above 100 µM throughout. For the same molecule, the TGI in the test with NCI-H460 lung, with HOP-92 NSCLC, with A498 renal, in the test on SF-268 CNS and in the test with HL-60(TB) leukemia was above 100 µM in each case.

For the molecule `c1ccc(COC[C@H]2C3OCC([C@H](OCc4ccccc4)[C@H]3OCc3ccccc3)N2Cc2ccccc2)cc1` (stereo partly specified), the concentration for total growth inhibition (TGI) in the test on MCF7 breast, in the test on A549 NSCLC, in the test with MDA-MB-435, in the test with SW-620 colon, in the test with OVCAR-8 ovarian and with COLO 205 colon was above 100 µM in each case. The TGI in the test on NCI-H522 lung was above 82 µM; with TK-10 renal it was above 100 µM; in the test with HT29 colon it was above 100 µM; in the test with HOP-62 NSCLC, above 100 µM; in the test with MOLT-4 leukemia it was above 51.7 µM; with PC-3 prostate it was above 100 µM. Also, the total growth inhibition concentration (TGI) in the test with NCI-H460 lung was above 100 µM; in the test on HOP-92 NSCLC it was above 100 µM; in the test on A498 renal it was above 100 µM; in the test with SF-268 CNS, above 100 µM; with HL-60(TB) leukemia, above 53.4 µM.
